{
  "source": "patent US20130023645A1",
  "about": "(priority 2006, published 2013)",
  "target": "T1, neuronal-type nicotinic receptors (Bos taurus, UniProt Q07263+Q8SPU6)",
  "T1 construct": "monolayer cultures of bovine adrenal chromaffin cells; endogenous in cells; host or cells: bovine adrenal chromaffin cells (primary monolayer cultures)",
  "T1 sequence (Q07263 22-495)": "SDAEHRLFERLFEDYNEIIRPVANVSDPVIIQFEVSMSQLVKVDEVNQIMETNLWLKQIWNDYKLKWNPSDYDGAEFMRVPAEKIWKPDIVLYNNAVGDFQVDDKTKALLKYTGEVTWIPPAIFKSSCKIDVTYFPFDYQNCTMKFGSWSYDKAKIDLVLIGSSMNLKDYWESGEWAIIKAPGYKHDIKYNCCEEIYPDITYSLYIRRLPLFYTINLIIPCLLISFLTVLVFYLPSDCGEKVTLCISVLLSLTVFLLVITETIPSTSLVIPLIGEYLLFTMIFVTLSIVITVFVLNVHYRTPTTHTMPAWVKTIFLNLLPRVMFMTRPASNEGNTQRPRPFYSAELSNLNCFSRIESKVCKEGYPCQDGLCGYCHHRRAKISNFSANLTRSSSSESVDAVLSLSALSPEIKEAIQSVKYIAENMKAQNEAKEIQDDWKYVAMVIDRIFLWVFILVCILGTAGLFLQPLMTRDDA",
  "T1 sequence (Q8SPU6 20-496)": "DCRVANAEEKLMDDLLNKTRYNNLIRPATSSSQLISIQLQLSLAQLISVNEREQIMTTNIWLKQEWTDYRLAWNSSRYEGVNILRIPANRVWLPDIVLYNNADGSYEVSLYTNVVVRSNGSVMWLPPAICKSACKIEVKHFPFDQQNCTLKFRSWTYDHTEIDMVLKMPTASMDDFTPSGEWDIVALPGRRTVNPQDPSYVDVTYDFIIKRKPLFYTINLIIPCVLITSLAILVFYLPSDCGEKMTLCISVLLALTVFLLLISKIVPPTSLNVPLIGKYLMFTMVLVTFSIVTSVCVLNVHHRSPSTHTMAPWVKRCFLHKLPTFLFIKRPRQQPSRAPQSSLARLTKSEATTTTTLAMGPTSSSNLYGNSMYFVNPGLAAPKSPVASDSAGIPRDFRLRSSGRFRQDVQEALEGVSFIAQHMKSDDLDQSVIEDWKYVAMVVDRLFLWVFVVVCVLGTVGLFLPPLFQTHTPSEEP",
  "type": "cell-based, bovine",
  "note": "Where “and” joins values, the source holds several entries; their conditions need not be identical. Identical values can stand only once.",
  "data": [
    {"smiles": "CN1CCCC1c1cccnc1", "note": "(centres unmarked) [NICOTINE, nicotine, reference compound]", "values": [
      {"measurement": "Adrenaline Release, mean", "result": 4.46, "unit": "%"},
      {"measurement": "Adrenaline Release, single determinations (1st-4th)", "result": "4.31% and 4.52% and 4.48%"},
      {"measurement": "Noradrenaline Release, mean", "result": 6.85, "unit": "%"},
      {"measurement": "Noradrenaline Release, single determinations (1st-4th)", "result": "6.62% and 6.89% and 6.99%"},
      {"measurement": "noradrenaline released, basal release (0.72%) subtracted", "result": 6.13, "unit": "%"}
    ]}
  ]
}
